# Experimental data as given in article PMC10928503 (Nature medicine, 2023).
# What was measured:
# [1] = target: T1, FpGNAT (acyl-CoA N-acetyltransferase from F. prausnitzii) (Faecalibacterium duncaniae, UniProt C7H1G6); assay: LC-MS/MS end-point acetylation assay; format: biochemical; conditions: 1 mM 5-ASA
# T1 sequence (C7H1G6 1-201): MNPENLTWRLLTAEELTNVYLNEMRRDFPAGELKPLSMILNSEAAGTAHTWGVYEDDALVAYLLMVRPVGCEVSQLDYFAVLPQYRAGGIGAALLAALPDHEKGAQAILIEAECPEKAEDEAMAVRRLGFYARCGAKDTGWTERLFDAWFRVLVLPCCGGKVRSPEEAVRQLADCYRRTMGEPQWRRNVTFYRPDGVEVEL
# [2] = target: Firmicutes CAG:176 thiolase (FcTHL) (Firmicutes CAG:176 (uncultured Firmicutes)); assay: crystal structure
# [3] = test system: FcTHL (Firmicutes CAG:176 thiolase); assay: LC-MS/MS of N-acetyl 5-ASA formed, Michaelis-Menten; format: biochemical, Firmicutes bacterium CAG:176; conditions: 1 mM acetyl-CoA constant; 20 mM HEPES pH 7.5, 50 mM NaCl, 1 mM MgCl2, 1 mM TCEP, 5 uM enzyme, 37 °C
molecule,measurement,setting,value
CC(=O)SCCNC(=O)CCNC(=O)[C@H](O)C(C)(C)COP(=O)(O)OP(=O)(O)OC[C@H]1O[C@@H](n2cnc3c(N)ncnc32)[C@H](O)[C@@H]1OP(=O)(O)O [acetyl-CoA],LC-MS/MS end-point acetylation assay,"[1]; acetyl donor, same",convert 5-ASA to N-acetyl-5-ASA in the presence of acetyl-CoA
Firmicutes CAG:176 thiolase (FcTHL) (enzyme),stoichiometry N,[2],4
Nc1ccc(O)c(C(=O)O)c1 [5-ASA],LC-MS/MS end-point acetylation assay,"[1]; 1 mM acetyl-CoA, 50 uM enzyme, pH 7.5, 37 °C, 6 h",convert 5-ASA to N-acetyl-5-ASA in the presence of acetyl-CoA
same,Km,[3],1880 ± 460 µM
